The source made the active and inactive calls. The calls are words filed in the database; no cut-off is given here.
Experiments:
[1] = biological target: T1, Antigen-presenting glycoprotein CD1d1 (Mus musculus) (UniProt P11609); assay: Binding affinity to His-tagged mouse CD1d incubated for 1.5 hrs by ELISA
T1 sequence (whole entry): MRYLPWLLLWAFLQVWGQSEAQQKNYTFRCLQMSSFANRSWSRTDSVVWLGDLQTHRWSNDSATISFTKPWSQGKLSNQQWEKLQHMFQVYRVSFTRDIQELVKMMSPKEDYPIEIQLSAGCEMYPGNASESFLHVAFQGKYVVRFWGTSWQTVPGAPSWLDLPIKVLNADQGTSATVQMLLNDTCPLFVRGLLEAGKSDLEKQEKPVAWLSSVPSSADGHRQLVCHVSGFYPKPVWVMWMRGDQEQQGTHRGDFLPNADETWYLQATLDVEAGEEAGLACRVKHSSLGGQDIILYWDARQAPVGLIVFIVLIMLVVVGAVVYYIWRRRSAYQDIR

[2] = biological target: T2, C-type lectin domain family 4 member E (Homo sapiens) (UniProt Q9ULY5); assay: Binding affinity to Fc-fused human Mincle incubated for 1.5 hrs by ELISA
T2 sequence (whole entry): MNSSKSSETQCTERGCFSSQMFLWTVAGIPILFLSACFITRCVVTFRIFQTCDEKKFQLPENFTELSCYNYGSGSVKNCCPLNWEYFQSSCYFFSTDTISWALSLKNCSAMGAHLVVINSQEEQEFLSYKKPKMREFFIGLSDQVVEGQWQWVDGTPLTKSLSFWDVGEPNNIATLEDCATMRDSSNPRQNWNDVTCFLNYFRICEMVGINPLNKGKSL

Mus musculus [3] = assay: Immunization of Balb/c mouse assessed as decrease in TF-specific IgM titer compound administered as liposomes subcutaneously on day 0 in presence of TF followed by administration of booster doses on days 14, 21 and 28 measured on days 21, 27 and 38 by ELISA; format: functional, organism-based; settings: route sc, time 38.0 day
Mus musculus [4] = assay: Immunization of Balb/c mouse assessed as increase in IgG titer compound administered as liposomes subcutaneously on day 0 in presence of TF followed by administration of booster doses on days 14, 21 and 28 measured on days 21, 27 and 38 by ELISA; format: functional, organism-based; settings: route sc, time 38.0 day
Mus musculus [5] = assay: Immunization of Balb/c mouse assessed as IgG titer compound administered as liposomes subcutaneously on day 0 in presence of TF followed by administration of booster doses on days 14, 21 and 28 measured on days 21, 27 and 38 by ELISA; format: functional; settings: route sc; time 38 day
Mus musculus [6] = assay: Immunization of Balb/c mouse assessed as increase in kappa light chain titer compound administered as liposomes subcutaneously on day 0 in presence of TF followed by administration of booster doses on days 14, 21 and 28 measured on days 21, 27 and 38 by ELISA; format: functional, organism-based; settings: route sc, time 38.0 day
Mus musculus [7] = assay: Immunization of Balb/c mouse assessed as increase in IgG2a titer compound administered as liposomes subcutaneously on day 0 in presence of TF followed by administration of booster doses on days 14, 21 and 28 measured on days 21, 27 and 38 by ELISA; format: functional, organism-based; settings: route sc, time 38.0 day
Mus musculus [8] = assay: Immunization of Balb/c mouse assessed as increase in IFN-gamma level compound administered as liposomes subcutaneously on day 0 in presence of TF followed by administration of booster doses on days 14, 21 and 28 measured on days 21, 27 and 38 by ELISA; format: functional, organism-based; settings: route sc, time 38.0 day
Mus musculus [9] = assay: Immunization of Balb/c mouse assessed as IFN-gamma level compound administered as liposomes subcutaneously on day 0 in presence of TF followed by administration of booster doses on days 14, 21 and 28 measured on days 21, 27 and 38 by ELISA; format: functional; settings: route sc; time 38 day
TA3/Ha [10] = assay: Binding ability of anti-serum derived from compound-vaccinated mouse to TF-positive mouse TA3/Ha cells cultured with FITC-labeled anti-IgG Ab assessed as positive fluorescent peak shift by FACS analysis; format: functional, cell-based
4T1-Luc [11] = assay: Binding ability of anti-serum derived from compound-vaccinated mouse to TF-positive mouse 4T1-Luc cells cultured with FITC-labeled anti-IgG Ab assessed as positive fluorescent peak shift by FACS analysis; format: functional, cell-based
MDA-MB-468 [12] = assay: Binding ability of anti-serum derived from compound-vaccinated mouse to TF-negative human MDA-MB-468 cells cultured with FITC-labeled anti-IgG Ab assessed as positive fluorescent peak shift by FACS analysis; format: functional, cell-based
TA3/Ha [13] = assay: Cytotoxicity against TF-positive mouse TA3/Ha cells treated with anti-serum derived from compound-vaccinated mouse for 2 hrs followed by anti-serum washout and addition of rabbit complement serum measured after 1 hr by LDH assay; format: functional, cell-based
4T1-Luc [14] = assay: Cytotoxicity against TF-positive mouse 4T1-Luc cells treated with anti-serum derived from compound-vaccinated mouse for 2 hrs followed by anti-serum washout and addition of rabbit complement serum measured after 1 hr by LDH assay; format: functional, cell-based
MDA-MB-468 [15] = assay: Cytotoxicity against TF-negative human MDA-MB-468 cells treated with anti-serum derived from compound-vaccinated mouse for 2 hrs followed by anti-serum washout and addition of rabbit complement serum measured after 1 hr by LDH assay; format: functional, cell-based
Mus musculus [16] = assay: Antitumor activity in cyclophosphamide-treated Balb/c mouse assessed as protection against tumor development compound administered as liposomes subcutaneously on day 0 in presence of TF followed by administration of booster doses on days 14, 21 and 28 and implantation of mouse TA3/Ha cells on day 35 measured upto 50 days post-tumor challenge; format: functional, organism-based; settings: route sc, time <= 85.0 day
Mus musculus [17] = assay: Antitumor activity in cyclophosphamide-treated Balb/c mouse assessed as average survival time compound administered as liposomes subcutaneously on day 0 in presence of TF followed by administration of booster doses on days 14, 21 and 28 and implantation of mouse TA3/Ha cells on day 35 measured upto 50 days post-tumor challenge; format: functional; settings: route sc; time <= 85 day
Mus musculus [18] = assay: Antitumor activity in cyclophosphamide-treated Balb/c mouse assessed as survival ratio compound administered as liposomes subcutaneously on day 0 in presence of TF followed by administration of booster doses on days 14, 21 and 28 and implantation of mouse TA3/Ha cells on day 35 measured upto 50 days post-tumor challenge relative to control; format: functional; settings: route sc; time <= 85 day
Mus musculus [19] = assay: Antitumor activity in Balb/c mouse assessed as average survival time compound administered as liposomes subcutaneously on day 0 in presence of TF followed by administration of booster doses on days 14, 21 and 28 and implantation of mouse TA3/Ha cells on day 35 measured upto 50 days post-tumor challenge; format: functional; settings: route sc; time <= 85 day
Mus musculus [20] = assay: Antitumor activity in Balb/c mouse assessed as survival ratio compound administered as liposomes subcutaneously on day 0 in presence of TF followed by administration of booster doses on days 14, 21 and 28 and implantation of mouse TA3/Ha cells on day 35 measured upto 50 days post-tumor challenge relative to control; format: functional; settings: route sc; time <= 85 day
Mus musculus [21] = assay: Antitumor activity in cyclophosphamide-treated Balb/c mouse assessed as rejection of tumor compound administered as liposomes subcutaneously on day 0 in presence of TF followed by administration of booster doses on days 14, 21 and 28 and implantation of mouse TA3/Ha cells on day 35 measured upto 50 days post-tumor challenge followed by re-implantation of another mouse TA3/Ha cells measured for another 100 days post-tumor challenge; format: functional, organism-based; settings: route sc, time 185.0 day
Mus musculus [22] = assay: Antitumor activity in cyclophosphamide-treated surviving Balb/c mouse assessed as increase in IgG antibody titer compound administered as liposomes subcutaneously on day 0 in presence of TF followed by administration of booster doses on days 14, 21 and 28 and implantation of mouse TA3/Ha cells on day 35 measured upto 50 days post-tumor challenge followed by re-implantation of another mouse TA3/Ha cells measured for another 30 days post-tumor challenge by ELISA; format: functional, organism-based; settings: route sc, time <= 115.0 day
TA3/Ha [23] = assay: Binding ability of anti-serum derived from compound-vaccinated surviving mouse to TF-positive mouse TA3/Ha cells cultured with FITC-labeled anti-IgG Ab assessed as positive fluorescent peak shift by FACS analysis; format: functional, cell-based

SMILES: CCCCCCCCCCCCCCCCCCCCCCCCCC(=O)N[C@@H](CO[C@H]1O[C@H](CNC(=O)CCCCC(=O)NCCCC[C@H](NC(=O)CCC(=O)NCCOCCO[C@H]2[C@H](O)[C@@H](O)[C@@H](O[C@H]3O[C@H](COC(=O)CC(CCCCCCCCC)CCCCCCCCC)[C@@H](O)[C@H](O)[C@H]3O)O[C@@H]2COC(=O)CC(CCCCCCCCC)CCCCCCCCC)C(=O)NCc2cn(CCO[C@H]3O[C@H](CO)[C@H](O)[C@H](O[C@@H]4O[C@H](CO)[C@H](O)[C@H](O)[C@H]4O)[C@H]3NC(C)=O)nn2)[C@H](O)[C@H](O)[C@H]1O)[C@H](O)[C@H](O)CCCCCCCCCCCCCC
- Activity [1]: Active
- Activity [2]: Active
- Activity (Mus musculus [3]): Active; Result Reveals That Efficient Conversion Of Igm To Igg Had Occurred And That Long-Term Secondary Immune Responses Had Been Triggered
- Activity (Mus musculus [4]): Active
- Activity (Mus musculus [5]): 96611
- Activity (Mus musculus [6]): Active; Compound Induced Strong Tf-Specific And T-Cell-Dependent Immune Response
- Activity (Mus musculus [7]): Active
- Activity (Mus musculus [8]): Active
- Activity (Mus musculus [9]): 263 pg/mL
- Activity (TA3/Ha [10]): Active; Compound-Derived Antibodies In Antiserum Exhibited Strongest Binding Activity
- Activity (4T1-Luc [11]): Active; Compound-Derived Antibodies In Antiserum Exhibited Strongest Binding Activity
- Activity (MDA-MB-468 [12]): inactive
- Activity (TA3/Ha [13]): Active; Result Reveals That The Anti-Serum Induced By Compound Effectively Activated The Complement System
- Activity (4T1-Luc [14]): Active; Result Reveals That The Anti-Serum Induced By Compound Effectively Activated The Complement System
- Activity (MDA-MB-468 [15]): inactive
- Activity (Mus musculus [16]): Active
- Time (Mus musculus [17]): 43.8 days
- Survival (Mus musculus [18]): 75%
- Time (Mus musculus [19]): 34.5 days
- Survival (Mus musculus [20]): 37.5%
- Activity (Mus musculus [21]): Active
- Activity (Mus musculus [22]): Active; Exhibited Superior Effect
- Activity (TA3/Ha [23]): Active

SMILES: CCCCCCCCCCCCCCCCCCCCCCCCCC(=O)N[C@@H](CO[C@H]1O[C@H](CNC(=O)CCCCC(=O)NCc2cn(CCO[C@H]3O[C@H](CO)[C@H](O)[C@H](O[C@@H]4O[C@H](CO)[C@H](O)[C@H](O)[C@H]4O)[C@H]3NC(C)=O)nn2)[C@H](O)[C@H](O)[C@H]1O)[C@H](O)[C@H](O)CCCCCCCCCCCCCC
- Activity [1]: Active
- Activity (Mus musculus [3]): Active; Result Reveals That Efficient Conversion Of Igm To Igg Had Occurred And That Long-Term Secondary Immune Responses Had Been Triggered
- Activity (Mus musculus [4]): Active
- Activity (Mus musculus [5]): 54112
- Activity (Mus musculus [6]): Active; Compound Induced Strong Tf-Specific And T-Cell-Dependent Immune Response
- Activity (Mus musculus [8]): Active
- Activity (TA3/Ha [10]): Active
- Activity (4T1-Luc [11]): Active
- Activity (MDA-MB-468 [12]): inactive
- Activity (TA3/Ha [13]): Active; Result Reveals That The Anti-Serum Induced By Compound Effectively Activated The Complement System
- Activity (4T1-Luc [14]): Active; Result Reveals That The Anti-Serum Induced By Compound Effectively Activated The Complement System
- Activity (MDA-MB-468 [15]): inactive
- Activity (Mus musculus [16]): Active
- Time (Mus musculus [17]): 34.4 days
- Survival (Mus musculus [18]): 37.5%
- Activity (Mus musculus [21]): Active
- Activity (Mus musculus [22]): Active
- Activity (TA3/Ha [23]): Active

SMILES: CCCCCCCCCC(CCCCCCCCC)CC(=O)OC[C@H]1O[C@H](O[C@H]2O[C@H](COC(=O)CC(CCCCCCCCC)CCCCCCCCC)[C@@H](OCCOCCNC(=O)CCC(=O)NCc3cn(CCO[C@H]4O[C@H](CO)[C@H](O)[C@H](O[C@@H]5O[C@H](CO)[C@H](O)[C@H](O)[C@H]5O)[C@H]4NC(C)=O)nn3)[C@H](O)[C@H]2O)[C@H](O)[C@@H](O)[C@@H]1O
- Activity [2]: Active
- Activity (Mus musculus [3]): Active; Result Reveals That Efficient Conversion Of Igm To Igg Had Occurred And That Long-Term Secondary Immune Responses Had Been Triggered
- Activity (Mus musculus [4]): Active
- Activity (Mus musculus [5]): 66937
- Activity (Mus musculus [6]): Active; Compound Induced Strong Tf-Specific And T-Cell-Dependent Immune Response
- Activity (Mus musculus [8]): Active
- Activity (TA3/Ha [10]): Active
- Activity (4T1-Luc [11]): Active
- Activity (MDA-MB-468 [12]): inactive
- Activity (TA3/Ha [13]): Active; Result Reveals That The Anti-Serum Induced By Compound Effectively Activated The Complement System
- Activity (4T1-Luc [14]): Active; Result Reveals That The Anti-Serum Induced By Compound Effectively Activated The Complement System
- Activity (MDA-MB-468 [15]): inactive
- Activity (Mus musculus [16]): Active
- Time (Mus musculus [17]): 38.8 days
- Survival (Mus musculus [18]): 50%
- Activity (Mus musculus [21]): Active
- Activity (Mus musculus [22]): Active
- Activity (TA3/Ha [23]): Active

Source: ChEMBL document CHEMBL6120949, “Fully Synthetic TF-Based Self-Adjuvanting Vaccine Simultaneously Triggers iNKT Cells and Mincle and Protects Mice against Tumor Development” (2024)
